According to US20070173545A1, “Activation of hypoxia-inducible gene expression” (priority 2003, published 2007):
“Also recorded” adds a separate entry of the source.

Experiments:
[1] = test system: HRE containing promoter; assay: HRE-GFP reporter in U373 cells; type: cell-based, human; details: eight hours, glucose-free medium
Description: (§1) FIG. 18: 2-oxoacids activate HIF-mediated gene expression in human cell lines Effective gene expression by HIF not only involves HIF protein stabilization via inhibition of HPH enzymes but also HIF-1 binding to DNA, inhibition of FIH-1 activity, and gene transcription (see FIG. 1). (A) Glioma cells used in our studies express FIH-1 as assessed using RT-PCR. […] Expression of beta-actin, a housekeeping gene not under HIF regulation is not affected by pyruvate. […] (E) U373 cell were transfected with a green fluorescent protein (GFP) construct under the control of an HIF regulatory element (HRE) containing promoter and then cultured for eight hours in glucose-free medium under the indicated conditions. […] U251 cells stably transfected with a luciferase construct under the control of an HRE containing promoter were cultured for six hours in glucose free Krebs with the following conditions: 1=control, 2=1% oxygen, 3=pyruvate (2 mM), 4=OAA (2 mM), 5=Ethylpyruvate (2 mM), 6=Glucose (5.5 mM), 7=DMOG (0.5 mM), 8=Lactacystin-beta lactone ([…]).
Effective gene expression by HIF not only involves HIF protein stabilization via inhibition of HPH enzymes but also HIF-1 binding to DNA, inhibition of FIH-1 activity, and gene transcription. The human gliomas that we utilized for most of our studies all express mRNA for FIH-1 (FIG. 18A). […]

[2] = test system: HRE containing promoter; assay: HRE-luciferase reporter in U251 cells; type: cell-based, human; details: six hours, glucose free Krebs, pyruvate, OAA, Ethylpyruvate 2 mM, Lactacystin-beta lactone 20 mM
Description: as §1
FIG. 19: HIF-mediated gene expression is selectively reversed by ascorbate U251 cells stably expressing HRE-luciferase were cultured in glucose-free Krebs buffer with the indicated conditions for eight hours. Pyruvate, oxaloacetate, and DMOG were added at 1 mM each.
Effective gene expression by HIF not only involves HIF protein stabilization via inhibition of HPH enzymes but also HIF-1 binding to DNA, inhibition of FIH-1 activity, and gene transcription. The human gliomas that we utilized for most of our studies all express mRNA for FIH-1 (FIG. 18A). […] To directly assess activation of gene containing an HRE regulated promoter by the glucose metabolites pyruvate and oxaloacetate, we used U373 glioma cells transfected with an HRE-green fluorescent (HRE-GFP) construct that responds to HIF activation.

[3] = test system: HIF-1a protein; assay: HIF-1a levels in nuclear extracts of U87 glioma cells (western blot); type: cell-based, human; details: 150 μm DFO, four hours
Experimental: (A) U87 glioma cells cultured in DMEM were switched to Krebs buffer containing 5.5 mM glucose (Glc) and then evaluated for nuclear HIF-1a levels at various times by western blot analysis. (B) HIF-1a levels were measured after four hours incubation of cells in Krebs buffer containing the indicated glucose concentrations or with 5.5 mM 2-deoxyglucose (2-DG) substituted for glucose. (C) HIF-1a levels were measured in U87 cells cultured in glucose-free Krebs buffer following treatment for four hours under normoxia (21% oxygen) hypoxia (1% oxygen) or with 150 μm desferrioxamine (DFO). (D) Induction of HIF-1a by glucose was monitored in the presence of 50 μM IAA or 1 mM 4-CIN. […] Results are representative of experiments repeated at least three times.
Similar measurements were made in the presence of 50 μM IAA or in glucose-free Krebs buffer. […] HIF-1a induction by four hours treatment with 5.5 mM glucose-containing Krebs (Glc) is shown for comparison. (E) Digitonin-permeabilized cells were treated with 1% oxygen or Krebs containing either 5.5 mM glucose or 2 mM pyruvate in the presence of 50 μM IAA. Permeabilized cell in lanes 5 and 6 were treated with 3 mM NAD or NADH respectively in glucose free Krebs. Nuclear HIF-1a levels were determined four hours later. (F) HIF-1a levels were determined after four hour treatment of cells in glucose-free Krebs (lane 1) or 5.5 mM Glucose containing Krebs. […] (H) To measure the decay of the HIF-1a protein, HIF-1a measurements were made after four hour treatment under hypoxia (lane 1), four hours hypoxia followed by 30 minutes normoxia (lane 2), four hour treatment with 150 μM DFO (lane 3), four hours DFO followed by addition of 100 μM CHX for one hour (lane 4), four hours treatment with 2 mM pyruvate (lane 5), and four hours pyruvate followed by addition of 100 μM CHX for one hour (lane 6). (H) HIF-1a levels were determined in digitonin-permeabilized cells treated for four hour with Krebs containing no glucose (lane 1), 1 mM pyruvate (lane 2), or 1 mM pyruvate and 10 mM 2-OG (lane 3).
In order to resolve the biochemical mechanisms underlying this phenomenon, we studied the human glioma cell line U-87 under conditions of carefully defined culture media. Thus we studied these cells while culturing them in freshly prepared Krebs buffer, all components of which were known to us.
To precisely define the glucose metabolite mediating HIF-1a accumulation, we utilized pharmacological inhibitors of glycolysis as well as the direct addition of different glucose metabolites to cells (FIG. 4).

[4] = test system: HIF-1a; assay: HIF-1a induction in digitonin-permeabilized human glioma cells (U87, U251); type: cell-based; details: 1 mM doses
Experimental: We determined the ability of each shown structure to induce HIF by exposing digitonin-permeabilized human glioma cells (U87, U251) to 1 mM doses.
At four hours, ATP levels were measured in cell extracts using the luciferase method.
In order to investigate the mechanism of action of the 2-oxoacid HIF inducers that we identified we first determined their effects upon cellular ATP levels. […] As shown in the scheme in FIG. 1, cellular levels of HIF-1a can be elevated by blockade of proteasomal activity, ubiquitinylation, or prolyl hydroxylation. Inhibition of the proteasome by lactacystin beta-lactone (Lbl) leads to accumulation of HIF-1a in its polyubiquitinylated form which generally appears as a smear of higher molecular weight species on western blots. […] Cellular accumulation and nuclear translocation of HIF-1a can also be studied via immunohistochemistry. For this purpose we utilized U251 cells which are more adherent to cell culture dishes that the U87 cells.

[5] = test system: HPH; assay: HPH activity of extracts of pretreated U251 cells (^35S-pVHL pulldown); type: cell-based, human; details: four hours, 1 mM pyruvate or oxaloacetate, DMOG
Experimental: FIG. 17: Inactivation of cellular HPH activity by pyruvate and oxaloacetate U251 cells were cultured for four hours in glucose-free Krebs buffer with or without the indicated additions. Whole cell extracts were then prepared and used as a source of HPH enzyme to hydroxylate a biotinylated peptide from the HIF-1a ODD containing proline 564. Proline hydroxylation was measured by the ability of streptavidin coated beads to pulldown the hydroxyproline ^35S-pVHL complex as in FIGS. 12-14.
To directly determine whether HPH activity had been inactivated by pyruvate or oxaloacetate treatment, we evaluated the ability of U251 cell extracts from pyruvate or oxaloacetate treated cells to hydroxylate HIF-1a peptide using the ^35S-pVHL pulldown assay (Ivan et al. (2002) Proc. Natl. Acad. Sci. USA 99, 13459-13466). In these experiments, ascorbate was omitted from the in vitro portion of the assay.

[6] = test system: HPH homologues 1, 2 and 3; assay: ^35S-pVHL pulldown assay, in vitro translated HPH homologues; type: biochemical, human; details: 2-OG analogs at 1 mM, 5 mM or 25 mM [2-OG], ascorbate at 2 mM
Experimental: After incubating the peptide with the HPHs and the indicated reagents, ^35S-pVHL was added followed by addition of streptavidin-coated beads to pull down the HIF-1a peptide. The reaction was pelleted, the pellet was washed and then solubilized for SDS-PAGE analysis followed by autoradiography to reveal the captured ^35S-pVHL. Using in vitro translated HPH homologues we first optimized assay conditions with respect to the required HPH substrates and co-factors. […] Conditions for other reagents were: ascorbate=2 mM, iron sulfate=250 μM, DTT=1 mM. […] Conditions: ascorbate=2 mM, 2-OG=2 mM, DTT=1 mM. […] Conditions: 2-OG=125 μM, iron sulfate=250 μM, DTT=1 mM. […] In all assays 5 μl (about 20 ng) of enzyme and 1 μg of peptide was utilized.
FIG. 13: In vitro effects of 2-OG analogs on recombinant HPH activity HPH activity was assessed via the ^35S-pVHL pulldown assay as in FIG. 11. Activity of in vitro translated HPH homologues was determined in the absence and presence of the 2-OG analogs N-oxalylglycine (NOG), pyruvate or OAA at 1 mM.
To directly evaluate the action of pyruvate and oxaloacetate on HPH activity (step D in FIG. 2) we utilized the commonly used ^35S-pVHL pulldown assay. This assay monitors the ability of HPH homologues to confer ^35S-pVHL binding activity onto a biotinylated 19mer peptide containing the key proline564 residue of the HIF-1a ODD (see FIG. 1). […]

[7] = test system: HIF-1a; assay: HIF-1a decay after washout of the inducer in U251 and U87 cells; type: cell-based, human; details: 1 mM pyruvate four hours, then glucose free Krebs in normoxia
Experimental: FIG. 16: Ascorbate reverses the prolonged HIF-1a accumulation (A) Comparison of HIF-1a decay in U251 following induction with either hypoxia or pyruvate. U251 cells were cultured in glucose-free Krebs under hypoxia or with 1 mM pyruvate in normoxia for four hours. Following this cells were switched to glucose free Krebs in normoxia and fixed in formaldehyde at the indicated times. Cells were then stained for HIF-1a immunoreactivity. Note the rapid decay of nuclear HIF-1a staining after having been induced by hypoxia versus pyruvate. (B) U87 cell treated for four hours under hypoxia show prominent HIF-1a induction which is completely degraded by thirty minutes of re-oxygenation. U87 cells were treated in glucose-free Krebs buffer with or without 1 mM pyruvate or oxaloacetate.
HPH-2 has been reported to constitute the major HPH activity of most cells. We therefore evaluated the ability of ascorbate to prevent HIF-1a accumulation by pyruvate and oxaloacetate in living cells. […] To test this possibility we compared the reversibility of HIF-1a accumulation following induction with either hypoxia, pyruvate, or oxaloacetate. The rationale for these experiments stems from the well-known reversible inhibition of HPH activity by hypoxia (see FIG. 1). Thus HIF-1a accumulation and HIF activation during hypoxia is rapidly reversed upon re-oxygenation. […]

SMILES: CC(=O)N(O)CCCCCNC(=O)CCC(=O)N(O)CCCCCNC(=O)CCC(=O)N(O)CCCCCN [DFO, desferrioxamine]
- HRE-GFP expression [1]: activated HRE-GFP expression; also recorded: GFP (green fluorescence) was expressed
- HRE-luciferase expression [2]: enhanced HRE-luciferase expression
- HIF-1a levels in glucose-free Krebs buffer [3]: still upregulate HIF-1a protein in the absence of glucose

SMILES: COC(=O)CNC(=O)C(=O)OC [DMOG, dimethyloxalylglycine]
- Ability to induce HIF (HIF-1a accumulation), structure-activity [4]: consistently enhanced HIF-1a levels
- HPH activity of extracts of pretreated cells [5]: No such pretreatment-induced inhibition; also recorded: no such loss of HPH activity

SMILES: O=C(O)CNC(=O)C(=O)O [NOG, N-oxalylglycine]
- Inhibition of 2-OG catalyzed HPH activity [6]: inhibition by NOG is clearly evident
- Ability to induce HIF (HIF-1a accumulation), structure-activity [4]: consistently enhanced HIF-1a levels

SMILES: CC(=O)C(=O)O [pyruvate]
- Persistence of HIF-1a accumulation after washing out [7]: > 40 min
